Measurements taken from publication PMC4747952, “Development of TASP0410457 (TASP457), a novel dihydroquinolinone derivative as a PET radioligand for central histamine H3 receptors” (EJNMMI Research, 2016).

Experiments:
H3R = target: T1, H3R (Rattus norvegicus, UniProt Q9QYN8); assay: PET imaging of rat brains; assay type: in vivo; conditions: for cerebellar SUV at 15 min after radioligand injection: mean ± S.D.
T1 construct: from tissue; host or cells: brain of living Sprague-Dawley rats
Experimental: Six-week-old male Sprague-Dawley rats were purchased from Japan SLC (Shizuoka, Japan). PET scans were performed using a microPET Focus 220 small-animal scanner (Siemens Medical Solutions USA, Knoxville, TN). The rats were anesthetized with 1.5–2 % isoflurane during the imaging session, while their heart rate and blood oxygen saturation were monitored by pulse oximeter (CANL-425SVA; Med Associates, St. Albans, VT). Body temperature was kept at 37 °C with a heating pad (BWT-100; Bio Research Center, Aichi, Japan). Following the transmission scans for attenuation correction using a ^68Ge-^68Ga point source, emission scans were performed for 90 min in 3D list-mode with an energy window of 350–750 keV, immediately after the intravenous injection of each radioligand. Mean ± S.D. of the injected radioactivity of [^11C]TASP0410457, [^11C]TASP0434988, and [^11C]TASP0390136 was 119 ± 26 MBq, 132 ± 34 MBq, and 124 ± 17 MBq, respectively (n = 3–5). Mean ± S.D. of the mass doses of [^11C]TASP0410457, [^11C]TASP0434988, and [^11C]TASP0390136 was 2.4 ± 1.2 μg/kg, 1.9 ± 0.4 μg/kg, and 4.2 ± 1.6 μg/kg, respectively (n = 3–5).
To assess the specificity of radioligand binding, thioperamide was injected intravenously at a dose of 10 mg/kg at 30 s before the injection of each radioligand.
All list-mode data were sorted into 3D sinograms, which were then Fourier rebinned into 2D sinograms (frames: 1 min × 4, 2 min × 8 and 5 min × 14). Images were reconstructed using 2D-filtered back-projection with a 0.5-mm Hanning filter.
PET image and magnetic resonance imaging (MRI) template were co-registered using PMOD software (PMOD version 3.206; Zurich, Switzerland) according to the following procedure as in our previous works: Outline of the whole brain and positions of eyes in PET images at an early phase of the scan were initially matched to those in MRI images, and then further translations and rotations of PET images were manually performed for fine alignments. Finally, parameters for the co-registration were applied to the entire dynamic PET data. Regions of interest (ROIs) were placed on the striatum, hippocampus, and cerebellum using PMOD software with reference to the MRI template as described elsewhere. The tissue time-activity curves (TACs) for these ROIs were generated by calculating the SUV for each time frame as follows: SUV=radioactivityBq/g×bodyweightg/injectedradiotracerdoseBq
The binding potentials relative to the non-displaceable uptake (BPND) in the striatum and hippocampus were estimated using the simplified reference tissue model (SRTM) with PMOD software using the cerebellum as a reference region, as the rat cerebellum is devoid of H3R [26].

[1] = Radiochemical stability in the final formulation; assay type: physicochemical; conditions: at 40 min after the end of radiosynthesis
Experimental: [^11C]TASP0390136, [^11C]TASP0410457, and [^11C]TASP0434988 were synthesized as shown in Fig. 1a–c (detailed procedures are described in Additional file 1: Supplemental methods) using a homemade automated synthesis system. The radiochemical purities and specific activities of the radioligands, which were analyzed as described in Additional file 1: Supplemental Methods, along with their radiochemical yields and average synthesis times, are summarized in Table 1. Analytical HPLC chromatogram of each radioligand is shown in Additional file 2-4: Figures S1-S3. The radiochemical stabilities of [^11C]TASP0410457 and [^11C]TASP0434988 in the final formulation were >99 % at 1 h and 40 min, respectively, after the end of radiosynthesis.

rat H3R = target: T2, rat H3R (Rattus norvegicus, UniProt Q9QYN8); assay: In vitro binding to H3Rs, rat cerebral cortex membranes, [^3H]N-α-methylhistamine; conditions: 1 nM [^3H]N-α-methylhistamine, geometric mean, n = 3, read-out: Affinity for H3Rs Rat, IC50
T2 construct: Rat cerebral cortex and monkey frontal cortex were dissected; from tissue; host or cells: rat cerebral cortex membranes
Experimental: Rat cerebral cortex and monkey frontal cortex were dissected, homogenized with 50 mM Tris buffer (pH 7.4) containing 5 mM EDTA and Protease Inhibitor Cocktail Tablets (Roche Diagnostics, Indianapolis, IN) and centrifuged at 48,000×g for 15 min at 4 °C. The pellets were then suspended in binding buffer (50 mM Tris containing 5 mM EDTA, pH 7.4) and stored at −80 °C as membrane preparations.
The membrane preparations were thawed and incubated in the binding buffer containing 0.1 % bovine serum albumin, 1 nM [^3H]N-α-methylhistamine (PerkinElmer, Waltham, MA) with various concentrations of a dihydroquinolinone derivative (i.e., test compound) at 25 °C for 1 h. The reaction was terminated by rapid filtration through 96-well GF/C filter plates (PerkinElmer) presoaked with 0.5 % polyethyleneimine (Wako, Osaka, Japan). After washes with ice-cold binding buffer, the plates were dried and filled with Microscint-o (PerkinElmer). The radioactivity retained on the filters was counted using a TopCount NXT (PerkinElmer). Total and nonspecific radioligand binding was determined by reaction without and with 10 μM thioperamide and clobenpropit, respectively. The specific radioligand binding was then calculated by subtracting the nonspecific binding from the total binding. The IC50 value for inhibition of the radioligand binding by the test compound was determined using a nonlinear fit of the concentration-response curve for each test compound using SAS 9.2 (SAS Institute Inc., Cary, NC). Data were expressed as the geometric means of IC50 values from three independent experiments run in duplicate.

[2] = Ex vivo pharmacokinetic assessment in the rat brain using LC-MS/MS; conditions: 10 μg/kg intravenous, n = 3
Experimental: The rats were decapitated at 5, 15, 30, 60, and 120 min after intravenous administration of TASP0390136, TASP0390174, TASP0410426, TASP0410427, TASP0410457, or TASP0434988 at a dose of 10 μg/kg. The cerebellum and forebrain, including the medial prefrontal and cingulate cortices and anterior striatum, were dissected and homogenized with four volumes of distilled water. The homogenates were protein-precipitated with methanol/acetonitrile (1:9) and were centrifuged at 3974×g for 10 min at 4 °C. The resultant supernatants were injected into an HPLC (Shimadzu-20AD, Shimadzu, Kyoto, Japan) and a tandem mass spectrometer (API4000, AB SCIEX, Framingham, MA) using a Shim-pak XR-ODS column (3.0 × 30 mm, Shimadzu) at 50 °C. TASP0410457 was eluted with a mobile phase consisting of 10 mM of ammonium acetate/acetonitrile with a linear gradient at a flow rate of 1.3 mL/min, and ammonium formate instead of ammonium acetate was used for eluting the other five compounds. […] The eluted TASP0390136, TASP0390174, TASP0410426, TASP0410427, TASP0410457, and TASP0434988 were ionized using an electrospray interface and were detected using reaction monitoring of the transitions of m/z 395 to 91, 395 to 98, 413 to 98, 425 to 98, 408 to 138, and 407 to 138, respectively. A dihydroquinolinone compound (6-[(1-cyclobutylpiperidin-4-yl)oxy]-1-(3,5-difluorophenyl)-3,4-dihydroquinolin-2(1H)-one) was used as an internal standard for all assays. The lower qualification limit for TASP0410457 was 0.05 ng/g tissue, and the limit for the other five compounds was 0.15 ng/g tissue. Data were expressed as standardized uptake values (SUVs) calculated as follows: SUV=tissueconcentrationg/g×bodyweightg/injecteddoseg

central H3Rs = assay: Receptor occupancy assay, [^11C]TASP0410457-PET, Lassen's plot; assay type: in vivo, monkey
Experimental: Occupancy of central H3Rs by ciproxifan, a selective antagonist/inverse agonist, was quantified by [^11C]TASP0410457-PET scans of an anesthetized monkey with arterial blood sampling. […] Receptor occupancy of ciproxifan was determined using Lassen’s plot without any reference regions using the following equation: VT^Baseline−VT^Ciproxifan=OccVT^Baseline−VND where VT^Baseline and VT^Ciproxifan are the regional VT values at baseline and in the ciproxifan challenge, respectively, VND is the non-displaceable distribution volume, and Occ is the occupancy.

[3] = SRTM, cerebellum as reference region
[4] = thioperamide predosing 10 mg/kg

T1 sequence (Q9QYN8 whole entry): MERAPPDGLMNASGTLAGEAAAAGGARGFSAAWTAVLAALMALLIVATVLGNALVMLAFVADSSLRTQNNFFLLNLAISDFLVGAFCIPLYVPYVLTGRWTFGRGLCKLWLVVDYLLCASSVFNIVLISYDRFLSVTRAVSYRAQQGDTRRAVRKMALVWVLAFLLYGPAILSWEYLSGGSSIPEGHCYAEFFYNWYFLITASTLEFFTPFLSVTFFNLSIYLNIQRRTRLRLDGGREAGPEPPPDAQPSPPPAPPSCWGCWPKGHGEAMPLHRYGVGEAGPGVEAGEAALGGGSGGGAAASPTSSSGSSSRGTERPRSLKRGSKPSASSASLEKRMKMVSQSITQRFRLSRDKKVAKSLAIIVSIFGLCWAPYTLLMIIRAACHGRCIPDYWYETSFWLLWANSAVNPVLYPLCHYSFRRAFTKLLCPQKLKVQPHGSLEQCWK
T2 sequence (Q9QYN8 whole entry): as above

Row | SMILES | cerebellar SUV at 15 min after radioligand injection (H3R; baseline) | cerebellar SUV at 15 min after radioligand injection (H3R; [4]) | IC50 (rat H3R) [nM] | Mean peak concentration in the forebrain expressed as SUV [2] [SUV] | further results
1 | [11CH3]Oc1ccc(N2C(=O)CCc3cc(OC4CCN(C5CCC5)CC4)ccc32)cc1 [[^11C]TASP0434988] | 0.64 ± 0.04 | 0.59 ± 0.02 | – | – | striatal and hippocampal peak SUVs lower than those for [^11C]TASP0410457 (H3R): 20–25%; BPND, Hippocampus (H3R; [3]): 0.36 ± 0.11; BPND, Striatum (H3R; [3]): 0.92 ± 0.21; time for specific binding to reach a pseudo-equilibrium state (H3R; target-to-reference ratios, after intravenous injection): ≤ 15 min; radiochemical stability in the final formulation [1]: > 99%
2 | C[C@@H]1CCCN1CCCOc1ccc2c(c1)CCC(=O)N2c1ccc(O[11CH3])cc1 [[^11C]TASP0390136] | 0.33 ± 0.01 | 0.30 ± 0.03 | – | – | –
3 | COc1cccc(N2C(=O)CCc3cc(OCCCN4CCC[C@H]4C)ccc32)c1 [TASP0390174, 1-(3-methoxyphenyl)-6-{3-[(2R)-2-methylpyrrolidin-1-yl]propoxy}-3,4-dihydroquinolin-2(1H)-one] | – | – | < 3 | 0.28 | –
4 | COc1ccc(N2C(=O)CCc3cc(OCCCN4CCC[C@H]4C)ccc32)c(OC)c1 [TASP0410427, 1-(2,4-dimethoxyphenyl)-6-{3-[(2R)-2-methylpyrrolidin-1-yl]propoxy}-3,4-dihydroquinolin-2(1H)-one] | – | – | < 3 | 0.10 | –
5 | O=C(c1ccc(OCCCc2cnc[nH]2)cc1)C1CC1 [ciproxifan, reference compound] | – | – | – | – | receptor occupancy (central H3Rs; 3 mg/kg intravenously, 10 min before [^11C]TASP0410457, anesthetized monkey, Lassen's plot): ~ 75%; adverse effects preventing completion of PET imaging (central H3Rs; 10 mg/kg, monkey, anesthetized with isoflurane): profound effects on heart rates and body motions
6 | COc1cc(F)cc(N2C(=O)CCc3cc(OCCCN4CCC[C@H]4C)ccc32)c1 [TASP0410426, 1-(3-fluoro-5-methoxyphenyl)-6-{3-[(2R)-2-methylpyrrolidin-1-yl]propoxy}-3,4-dihydroquinolin-2(1H)-one] | – | – | < 3 | 0.30 | –
